One test has as its system HCV Replicon IB. In words: HCV replicon assay in Huh-7 cells, genotype 1b (Rluc luciferase readout). The test is classed as cell-based, hepatitis C virus. Conditions: HCV1B replicon, Huh-7 cells, 3 days; read-out: EC50_HCV1B_. On the technique in general: A replicon is a self-replicating genome or part of one, used to study replication in cells.
On to `Cc1cc(-c2nnc(NCC[C@H](C)O)s2)nc2c(C(C)(C)C)cc(C3CC3)cc12` [Compound 403], for which the EC50 came to 6.52 nM. Same read-out and setting: for `CC(C)(C)c1cc(C2CC2)cc2c(N)cc(C(=O)NCC3CS(=O)(=O)CCN3)nc12` (stereo not drawn) [Compound 324] the value was 3.63 nM; for `COC[C@]1(O)C[C@H](Nc2nnc(-c3cc(C)c4cc(OCC(F)(F)F)cc(C(C)(C)C)c4n3)o2)C1` [Compound 504], 9.86 nM.

Staying with this test, now noted: Hepatitis C virus, 72 h; 10 uM; 1b-Rluc replicon, Huh-7 cells, 3 days; read-out: Inhibition @ 10 uM in 1b-Rluc.
Regarding `Cc1ccc(CNC(=O)c2cc(C)c3cc(C4CC4)cc(C(F)(F)F)c3n2)nc1` [Compound 85], the inhibition at 10 µM stood at 100%. Still for that read-out and setting: to `Cc1cccc(CNC(=O)c2cc(C)c3cc(C4CC4)cc(C(F)(F)F)c3n2)n1` [Compound 83] belongs 99.4%; to `Cc1cc(-c2nnc(NCC3COCCN3)o2)nc2c(C(F)(F)F)cc(C3CC3)cc12` (stereo not drawn) [Compound 252], 92.7%; to `C#Cc1cc(OC(F)(F)F)cc2c(Cl)cc(C(=O)NCc3ccccn3)nc12` [Compound 238], 9.91%. For `Cc1cc(C(=O)NCc2ccccn2)nc2c(C(F)(F)F)cc(OC3CCCC3)cc12` [Compound 184], the inhibition at 10 µM stood at 96%.

Take `Cc1cc(C(=O)NC[C@H]2CC(F)(F)CN2)nc2c(C(F)(F)F)cc(OC(F)F)cc12` [Compound 190]: the inhibition at 10 µM came out at 94.7%.

Consider `Cc1cc(C(=O)NCc2cnccn2)nc2c(C(F)(F)F)cc(C3CC3)cc12` [Compound 89], for which the inhibition at 10 µM is 100%.

Turning to `Cc1cc(C(=O)NC[C@@H]2COCCN2)nc2c(C(F)(F)F)cc(C3CC3(F)F)cc12` (stereo partly drawn) [Compound 155], the inhibition at 10 µM amounted to 99.7%. As to `Nc1cc(C(=O)NCc2cccc(F)n2)nc2c(C(F)(F)F)cc(OC(F)F)cc12` [Compound 195], the inhibition at 10 µM was 99.7%.

As for `Cc1cc(C(=O)NCCCN2CCOCC2)nc2c(C(F)(F)F)cc(C3CC3)cc12` [Compound 122], the inhibition at 10 µM came out at 97.2%. As to `Cc1cc(-c2nnc(NCCCN3CCCCC3)o2)nc2c(C(F)(F)F)cc(C3CC3)cc12` [Compound 256], the inhibition at 10 µM was 99.4%.

For `CCC(=O)CNC(=O)c1cc(Cl)c2cc(OC(F)F)cc(C(F)(F)F)c2n1` [Compound 205], the inhibition at 10 µM worked out at 99.2%.

For `C#Cc1cc(OC(F)(F)F)cc2c(O)cc(C(=O)NCc3ccccn3)nc12` [Compound 237], the inhibition at 10 µM worked out at 21.7%. The same measure, in the same setting: for `O=C(NC[C@@H]1CC(F)(F)CCN1)c1cc(Cl)c2cc(OC(F)F)cc(C(F)(F)F)c2n1` (single isomer, unassigned) [Compound 203] the value was 98.3%; for `CC(C)(C)c1cc(C2CC2)cc2c(O)cc(C(=O)NCc3ccccn3)nc12` [Compound 227], 100%.

For `Cc1cc(-c2nnc(NCCCCCO)o2)nc2c(C(F)(F)F)cc(C3CC3)cc12` [Compound 259], the inhibition at 10 µM stood at 98.4%. For the compound `O=C(NCc1ccccn1)c1cc(Cl)c2cc(OC(F)(F)F)cc(Br)c2n1` [Compound 236], the inhibition at 10 µM turned out to be 86.4%. Still for that read-out and setting: for `O=C(NCc1ccccn1)c1cc(Cl)c2cc(OC(F)F)cc(C(F)(F)F)c2n1` [Compound 194] the value was 99.5%; for `Cc1cc(-c2nnc(NCCCS(N)(=O)=O)o2)nc2c(C(F)(F)F)cc(C3CC3)cc12` [Compound 267], 97.7%. Turning to `Cc1cc(C(=O)NCCC2CCCCN2)nc2c(C(F)(F)F)cc(C3CC3)cc12` (stereo not drawn) [Compound 124], the inhibition at 10 µM is 99.2%. With `Cc1cc(-c2nnc(NCC(=O)N(C)C)o2)nc2c(C(F)(F)F)cc(C3CC3)cc12` [Compound 248], the inhibition at 10 µM is 99.9%. On the same count and under the same terms, to `Cc1cc(-c2nnc(NCCCS(C)(=O)=O)o2)nc2c(C(F)(F)F)cc(C3CC3)cc12` [Compound 269] belongs 87.4%; to `Cc1cc(C(=O)NCC2COCCN2)nc2c(C(F)(F)F)cc(C3CC3)cc12` (stereo not drawn) [Compound 100], 99.5%. Still for that read-out and setting: for `CC(C)(C)c1cc(C2CC2)cc2c(N)cc(C(=O)NCc3ccccn3)nc12` [Compound 230] the value was 100%; for `COc1cc(C(F)(F)F)c2nc(-c3nnc(NCCCO)o3)cc(C)c2c1` [Compound 277], 98.2%; for `CCOCCOCCOCCCNc1nnc(-c2cc(C)c3cc(C4CC4)cc(C(F)(F)F)c3n2)o1` [Compound 253], 80%. The same measure, in the same setting: for `COc1cc(C(F)(F)F)c2nc(C(=O)NCc3ccccn3)cc(C)c2c1` [Compound 182] the value was 99.3%.

Still in this test, the particulars now being: Hepatitis C virus, Huh-7, 72 h, HCV1B replicon, Huh-7 cells, 3 days; read-out: EC50_HCV1B_.
`CC(C)(C)c1cc(C2CC2)cc2c(N)cc(-c3nnc(NCCCO)s3)nc12` [Compound 384]: the EC50 was 3.66 nM. The same measure, in the same setting: to `CCCCCNc1nnc(-c2cc(C)c3cc(C4CC4)cc(C(F)(F)F)c3n2)o1` [Compound 388] belongs 13.2 nM; to `Cc1cc(OC(F)(F)F)c2nc(C(=O)NCc3ncccn3)cc(C)c2c1` [Compound 446], 523 nM. Still for that read-out and setting: to `Cc1nnc(-c2cc(OC(F)(F)F)cc3c(N)cc(C(=O)NCc4ccccn4)nc23)[nH]1` [Compound 339] belongs 1230 nM; to `CCCCNC(=O)[C@@H]1CSC(c2cc(C)c3cc(OC(F)F)cc(C(F)(F)F)c3n2)=N1` [Compound 340], 3900 nM; to `Cc1cc(C(=O)NCc2ncccn2)nc2c(OC(F)F)cc(OC(F)F)cc12` [Compound 447], 37.5 nM.

Regarding `Cc1cc(-c2nnc(NCC3OCCO3)o2)nc2c(OC(C)(C)C)cc(C3CC3)cc12` [Compound 548], the EC50 is 37.1 nM. Same read-out and setting: for `Cc1cc(-c2nnc(Nc3ccccn3)o2)nc2c(C(C)(C)C)cc(OCC(F)(F)F)cc12` [Compound 458] the value was 0.83 nM. Same read-out and setting: for `Cc1cc(-c2nnc(NCC3S(=O)(=O)CCS3(=O)=O)o2)nc2c(C(C)(C)C)cc(OCC(F)(F)F)cc12` [Compound 484] the value was 2190 nM; for `Cc1cc(-c2nnc(NCC3OCCO3)o2)nc2c(S(C)(=O)=O)cc(C3CC3)cc12` [Compound 547], 185 nM; for `Nc1cc(-c2nnc(NCCCO)s2)nc2c(C(F)(F)F)cc(C3CC3)cc12` [Compound 375], 9.56 nM.

Consider `Cc1cc(-c2nnc(N[C@H]3CCOC3)o2)nc2c(C(C)(C)C)cc(OCC(F)(F)F)cc12` [Compound 451], for which the EC50 was found to be 2.45 nM. Still for that read-out and setting: to `Cc1cc(-c2nnc(NCC3(C)OCCO3)o2)nc2c(C(C)(C)C)cc(OCC(F)(F)F)cc12` [Compound 454] belongs 2.27 nM; to `Cc1cc(-c2nnc(N[C@H]3CC[C@@](C)(O)C3)o2)nc2c(C(C)(C)C)cc(OCC(F)(F)F)cc12` (racemic) [Compound 474], 1.02 nM. Still for that read-out and setting: for `Cc1cc(-c2nnc(NC[C@H]3C[C@H](O)C3)o2)nc2c(C(C)(C)C)cc(C3CC3)cc12` [Compound 418] the value was 4.58 nM; for `CC(C)(C)c1cc(C2CC2)cc2c(N)cc(-c3nnc(Nc4cccc(S(N)(=O)=O)c4)o3)nc12` [Compound 357], 356 nM; for `CCC(C)(O)c1cc(C2CC2)cc2c(C)cc(-c3nnc(NCC4OCCO4)o3)nc12` (stereo not drawn) [Compound 543], 155 nM. With `CC(C)(C)c1cc(C2CC2)cc2c(N)cc(C(=O)NC[C@H]3CS(=O)(=O)CCN3)nc12` [Compound 335], the EC50 worked out at 3.02 nM. The same measure, in the same setting: for `Cc1cc(-c2nnc(NC3CC(O)C3)o2)nc2c(C(C)(C)C)cc(OCC(F)(F)F)cc12` (stereo not drawn) [Compound 461] the value was 1.38 nM. As to `Cc1cc(-c2nnc(N[C@H]3CC[C@H](O)CC3)o2)nc2c(C(C)(C)C)cc(OCC(F)(F)F)cc12` [Compound 493], the EC50 worked out at 8.74 nM.

Regarding `Cc1cc(-c2nnc(NCC[C@@H](C)O)o2)nc2c(C(C)(C)C)cc(OCC(F)(F)F)cc12` [Compound 455], the EC50 was 3.05 nM. The same measure, in the same setting: for `Cc1cc(-c2nnc(N[C@H]3C[C@](O)(C(F)S(=O)(=O)c4ccccc4)C3)o2)nc2c(C(C)(C)C)cc(OCC(F)(F)F)cc12` (stereo partly drawn) [Compound 481] the value was 2880 nM; for `Cc1cc(-c2nnc(N[C@H]3C[C@@H](OP(=O)(O)O)C3)o2)nc2c(C(C)(C)C)cc(OCC(F)(F)F)cc12` [Compound 480], 1.24 nM. For `CSC(F)(F)Oc1cc(C(C)(C)C)c2nc(-c3nnc(N[C@H]4C[C@](O)(CF)C4)o3)cc(C)c2c1` [Compound 530], the EC50 came out at 2.81 nM. As to `CO[C@H]1CN[C@H](CNC(=O)c2nc(N)c3cc(C4CC4)cc(C(C)(C)C)c3n2)C1` [Compound 432], the EC50 turned out to be 83.3 nM. On the same count and under the same terms, for `Cc1cc(-c2nnc(NC3CC(O)(C(F)(F)F)C3)o2)nc2c(C(C)(C)C)cc(OCC(F)(F)F)cc12` (stereo not drawn) [Compound 469] the value was 115 nM; for `CC(C)(C)c1cc(C2CC2)cc2c(N)cc(-c3nnc(NCC4CCCCO4)o3)nc12` (stereo not drawn) [Compound 354], 15.3 nM; for `Cc1cc(-c2nnc(N[C@H]3C[C@@](O)(CO)C3)o2)nc2c(C(C)(C)C)cc(OCC(F)(F)F)cc12` [Compound 500], 7.57 nM. As for `Cc1cc(-c2nnc(N[C@H]3C[C@](O)(C(F)F)C3)o2)nc2c(C(C)(C)C)cc(OCC(F)(F)F)cc12` [Compound 468], the EC50 is 0.36 nM. As for `Cc1cc(-c2nnc(NCC3COC(C)(C)O3)o2)nc2c(C(C)(C)C)cc(C3CC3)cc12` (stereo not drawn) [Compound 415], the EC50 was 85 nM. Same read-out and setting: for `Cc1cc(-c2nnc(N[C@H]3C[C@](O)(CF)C3)o2)nc2c(C(C)(C)C)cc(OCC(F)F)cc12` [Compound 528] the value was 0.41 nM.

`Cc1cc(-c2nnc(NCC3OCCO3)o2)nc2c(C(C)(C)C)cc(OCC3OCCO3)cc12` [Compound 533]: the EC50 was 306 nM. Take `Cc1cc(-c2nnc(NCC3OCCO3)o2)nc2c(C(C)(C)C)cc(OCC(F)(F)C(F)(F)F)cc12` [Compound 523]: the EC50 came to 233 nM. On the same count and under the same terms, for `CC(C)(O)CCNc1nnc(-c2cc(N)c3cc(C4CC4)cc(C(C)(C)C)c3n2)s1` [Compound 383] the value was 4.85 nM.

For `Cc1cc(C(=O)NC[C@@H]2CC3(CN2)OCCO3)nc2c(OC(F)(F)F)cc(C3CC3)cc12` [Compound 443], the EC50 was found to be 18.8 nM.

Still in this test, the particulars now being: Hepatitis C virus, Huh-7, 72 h, read-out: EC50_HCV1B_(nM).
`CC(C)(C)c1cc(C2CC2)cc2c(N)cc(C(=O)NC[C@@H]3CC4(CN3)OCCO4)nc12` [Compound 332]: the EC50 was determined as 3.07 nM.

A word on the inhibition: it is how much of the control response was suppressed.

The values above are taken from US20120053148A1, “INHIBITORS OF HEPATITIS C VIRUS” (GILEAD SCIENCES, INC., priority 2010, published 2012).
